Results on four compounds are retold here after US12227501B2, “3-amino-2-[2-(acylamino)pyridin-4-yl]-1,5,6,7-tetrahydro-4h-pyrrolo[3,2-c]pyridin-4-one as CSNK1 inhibitors” (Bayer Aktiengesellschaft, priority 2019, dated 2025).

In one assay the target is human CSNK1A1 (Homo sapiens (Human), UniProt P48729). The assay can be described thus: CSNK1A1 High ATP Assay (ADP-Glo, 1 mM ATP). It is filed as biochemical. To be noted: read-out: CSNK1A1 high ATP assay IC50 [mol/l] (median). In short, it runs like this:
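GST-tagged full-length human CSNK1A1 from baculovirus-infected insect cells (typically about 0.4 ng/μL), pre-incubated with compound 15 min at 22 °C. Reaction with biotinylated peptide biotin-Ahx-KRRRAL-pS-VASLPGL at 1 mM ATP. ADP formed read by ADP-Glo luminescence.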
In general terms: ADP-Glo first removes unused ATP, then detects ADP through luciferase.

The target in a further assay is human CSNK1D (Homo sapiens (Human), UniProt P48730). The assay is described as follows: CSNK1D Assay (ADP-Glo, 1 μM ATP). Type of assay: biochemical. The conditions noted are these: read-out: CSNK1D IC50 [mol/l] (median). In short, it runs like this: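 GST-tagged full-length human CSNK1D from baculovirus-infected insect cells, typically ~0.5 ng/μL, with biotinylated peptide substrate and 1 μM ATP in HEPES pH 7.5 buffer. Compound is preincubated with enzyme 15 min at 22 °C. ADP formed is quantified by ADP-Glo luminescence.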
Sequence of human CSNK1D (P48730 whole entry): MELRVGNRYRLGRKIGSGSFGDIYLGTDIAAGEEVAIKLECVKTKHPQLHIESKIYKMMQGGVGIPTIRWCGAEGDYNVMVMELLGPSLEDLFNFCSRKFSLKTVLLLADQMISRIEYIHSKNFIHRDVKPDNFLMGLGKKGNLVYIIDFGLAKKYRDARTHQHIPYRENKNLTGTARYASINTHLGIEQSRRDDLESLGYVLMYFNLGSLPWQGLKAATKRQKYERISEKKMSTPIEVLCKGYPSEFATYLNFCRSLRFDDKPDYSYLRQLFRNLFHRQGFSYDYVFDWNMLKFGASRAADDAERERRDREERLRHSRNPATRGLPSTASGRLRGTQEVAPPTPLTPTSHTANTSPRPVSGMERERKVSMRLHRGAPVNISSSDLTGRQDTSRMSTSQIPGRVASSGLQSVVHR

Sequence of human CSNK1A1 (P48729 whole entry): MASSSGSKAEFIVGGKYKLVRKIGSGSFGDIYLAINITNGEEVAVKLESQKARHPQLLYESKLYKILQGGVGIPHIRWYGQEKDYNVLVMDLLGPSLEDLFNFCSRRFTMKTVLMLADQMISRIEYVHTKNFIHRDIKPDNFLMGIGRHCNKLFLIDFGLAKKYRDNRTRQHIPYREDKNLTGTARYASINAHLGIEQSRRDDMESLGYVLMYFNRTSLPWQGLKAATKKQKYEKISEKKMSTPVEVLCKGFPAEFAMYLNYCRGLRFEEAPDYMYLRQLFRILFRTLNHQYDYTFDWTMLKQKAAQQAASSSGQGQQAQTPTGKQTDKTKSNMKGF

`C[C@H](C(=O)Nc1cc(-c2[nH]c3c(c2Nc2ccccc2)C(=O)N(C)CC3)ccn1)c1ccc(F)cc1` (single isomer, unassigned) [Example 5]: the IC50 was found to be 63.4 nM at human CSNK1A1 and 12.1 nM at human CSNK1D.
In the case of `C[C@@H](C(=O)Nc1cc(-c2[nH]c3c(c2Nc2ccccc2)C(=O)N(C)CC3)ccn1)c1ccc(F)cc1` (single isomer, unassigned) [Example 6], the results for the IC50 on human CSNK1A1 and on human CSNK1D were 1600 nM and 49.6 nM, respectively.
In the same order, the values of `CN1CCc2[nH]c(-c3ccnc(NC(=O)Cc4ccc(F)cc4)c3)c(Nc3ccccc3)c2C1=O` [Example 1, N-[4-(3-anilino-5-methyl-4-oxo-4,5,6,7-tetrahydro-1H-pyrrolo[3,2-c]pyridin-2-yl)pyridin-2-yl]-2-(4-fluorophenyl)acetamide] are 28.4 nM and 5.64 nM.
On the same counts, the results for `CC(C(=O)Nc1cc(-c2[nH]c3c(c2Nc2ccccc2)C(=O)N(C)CC3)ccn1)c1ccc(F)cc1` (centres unmarked) [Example 4, N-[4-(3-anilino-5-methyl-4-oxo-4,5,6,7-tetrahydro-1H-pyrrolo[3,2-c]pyridin-2-yl)pyridin-2-yl]-2-(4-fluorophenyl)propanamide] are 115 nM and 15.1 nM.
